Laboratory results taken from ChEMBL document CHEMBL2346624, “Pyrrolopyrazines as selective spleen tyrosine kinase inhibitors” (J Med Chem, 2013).
Converted amounts (≈) assume the structure as drawn.

Experiments:
Liver microsomes = assay: Metabolic stability in human liver microsomes assessed as GSH adduct formation; type: ADME, Microsome
[1] = Metabolic stability in human liver microsomes; type: ADME, Microsome; settings: read-out: Stability
[2] = Metabolic stability in rat liver microsomes; type: ADME, Microsome; settings: read-out: Stability
[3] = Aqueous solubility of the compound by lyophilisate solubility assay; type: physicochemical; settings: buffer

Stability (Liver microsomes)	CLhep predicted [1] [mL/min/kg]	CLhep predicted [2] [mL/min/kg]	solubility [3] [µg/mL]	SMILES
Stable	14	35	< 1	CC(C)(CO)NC(=O)c1c[nH]c2ncc(-n3ncc4ccc(Cl)cc43)nc12
–	7	51	< 1	CC(C)(C)NC(=O)c1c[nH]c2ncc(-c3n[nH]c4c(CO)cccc34)nc12
–	–	–	< 1	COc1ccc(Nc2nc(-c3cccc(C(=O)Nc4ccc(C(=O)O)cc4)c3)nc3scnc23)cc1OC
Stable	3	6	< 1	CC(C)(C)NC(=O)c1c[nH]c2ncc(-c3nn(C4CCNCC4)c4cc(F)ccc34)nc12
–	12	41	586 (≈ 1170 µM)	CN(C)CCCn1nc(-c2cnc3[nH]cc(C(=O)NC(C)(C)CO)c3n2)c2cc(OC(F)F)ccc21
–	8	49	< 1	CC(C)(C)NC(=O)c1c[nH]c2ncc(-c3nn(CCC(O)CO)c4ccc(OC(F)F)cc34)nc12 (stereo unspecified)
–	4	23	< 1	CC(C)(C)NC(=O)c1c[nH]c2ncc(-c3nn(CCC(O)CO)c4cc(F)ccc34)nc12 (stereo unspecified)
Stable	16	47	< 1	C[C@@H](CO)NC(=O)c1c[nH]c2ncc(-c3nn(C)c4cc(Cl)ccc34)nc12
–	19	50	< 1	CC(C)NC(=O)c1c[nH]c2ncc(-c3nn(C)c4c3CC(C)(C)CC4)nc12
Stable	9	46	< 1	CN(C)CCCn1nc(-c2cnc3[nH]cc(C(=O)NC(C)(C)C)c3n2)c2cc(OC(F)F)ccc21
Stable	10	30	< 1	CC(C)(C)NC(=O)c1c[nH]c2ncc(-c3n[nH]c4ccc(OC(F)F)cc34)nc12
–	17	43	< 1	Cn1nc(-c2cnc3[nH]cc(C(=O)N[C@H]4C[C@H](O)C4)c3n2)c2ccc(F)cc21
–	11	37	< 1	COc1ccc2cnn(-c3cnc4[nH]cc(C(=O)NC(C)(C)C)c4n3)c2c1
–	8	43	< 1	CC(C)(C)NC(=O)c1c[nH]c2ncc(-c3nn(CCCS(C)(=O)=O)c4cc(F)ccc34)nc12
Stable	3	10	< 1	NC(=O)c1cnc(N[C@@H]2CCCC[C@@H]2N)nc1Nc1cccc(-n2nccn2)c1
Unstable	18	47	< 1	COc1cc(Nc2ncc(F)c(Nc3ccc4c(n3)N(COP(=O)(O)O)C(=O)C(C)(C)O4)n2)cc(OC)c1OC [FOSTAMATINIB]
–	18	51	< 1	Cn1nc(-c2cnc3[nH]cc(C(=O)NC(C)(C)C)c3n2)c2cc(OC(F)F)ccc21
